The values below come from patent publication US7725174B2 (priority 2006, dated 2010).

Assay [1] concerns human volunteer subjects. The conditions noted are these: in vivo.
Assay [2] deals with human volunteer subjects. The note with it: one subject.
Description: As with ApEn, these entropy measures compare changes in the time series of raw EEG data as it is generated. However, they are designed to determine qualities about the system which is generating the data. As such, they have potential to impart information about changes in CNS rather than just changes in the EEG. Information can be related about the CNS from a mesoscopic scale to a microscopic scale. […] Correlation dimension has not been used for real time analyses in the past because the computation usually requires large data sets for precise determination of the actual dimension of the data space. (See, Preissl, H., W. Lutzenberger, F. Pulvermuller, and N. Birbaumer, Fractal dimensions of short EEG time series in humans. Neurosci Lett, 1997. 225: p. 77-80.) To address this problem, we used short segments (e.g., 10 seconds) of data to calculate the correlation dimension and averaged the critical distance parameter ε, with each new estimate. Though this limits the accuracy with which signal dimension can be determined, it provides a reasonable estimate that changes as signal complexity changes.
Using the same raw EEG data, Lyapunov exponents of the EEG were also determined. Lyapunov exponents provide a qualitative indicator of signal stability. Unstable signals are sensitive to initial conditions and thus the predictability of their future trajectory is difficult. […]

Take `CC(C)c1cccc(C(C)C)c1O` [propofol]: the “change in ApEn with drug concentration” value in the assay on human volunteer subjects [1] was “decreased”. In addition, the “Lyapunov exponent with increasing sedation” value in the assay on human volunteer subjects [2] (FIG. 9) is reported as “tends towards a positive value”. Moreover, the “changes in correlation dimension by clinical frequency band” value with human volunteer subjects [2] (awake to deeper levels of sedation, FIG. 8) is recorded as “appear in the higher frequency ranges first”.
